Active and inactive are the calls of the source. The rule behind the calls is not given here.
Legend:
[1] = AUC (0 to infinity) in 12 hrs fasted Sprague-Dawley rat at 1 mg/kg, iv measured upto 720 mins by HPLC-MS/MS analysis; assay type: ADME, organism-based; details: in vivo
[2] = test system: SW620/AD300; assay: Cytotoxicity against multidrug resistant human SW620/AD300 cells assessed as survival rate at 2 uM measured after 72 hrs by MTT assay relative to control; assay type: functional; details: read-out: Survival
[3] = Toxicity in BALB/c nude mouse xenografted with […] CT26/TAXOL cells assessed as effect on brain at 100 mg/kg/day, IG measured after 14 days by H and E staining based analysis; assay type: organism-based; details: in vivo, po, 336 h, time 14 day
[4] = Tmax in 12 hrs fasted Sprague-Dawley rat at 10 mg/kg, po measured upto 720 mins by HPLC-MS/MS analysis; assay type: ADME, organism-based; details: in vivo
[5] = test system: SW-620; assay: Cytotoxicity against human SW620 cells assessed as survival rate at 4 uM measured after 72 hrs by MTT assay relative to control; assay type: functional; details: read-out: Survival
[6] = test system: KB 3-1; assay: Cytotoxicity against human KB 3-1 cells assessed as survival rate at 5 uM measured after 72 hrs by MTT assay relative to control; assay type: functional; details: read-out: Survival
[7] = Toxicity in BALB/c nude mouse xenografted with […] CT26/TAXOL cells assessed as effect on kidney at 100 mg/kg/day, IG measured after 14 days by H and E staining based analysis; assay type: organism-based; details: in vivo, po, 336 h, time 14 day
[8] = Toxicity in BALB/c nude mouse xenografted with […] CT26/TAXOL cells assessed as effect on heart at 100 mg/kg/day, IG measured after 14 days by H and E staining based analysis; assay type: organism-based; details: in vivo, po, 336 h, time 14 day
[9] = test system: KB-C2; assay: Reversal of paclitaxel resistance in human KB-C2 cells assessed as reversal fold by measuring ratio of paclitaxel IC50 to paclitaxel IC50 in presence of test compound at 4 uM incubated for 72 hrs by MTT assay; assay type: functional
[10] = Reversal of paclitaxel resistance in HEK293 cells transfected with pcDNA3.1 assessed as reversal fold by measuring ratio of paclitaxel IC50 to paclitaxel IC50 in presence of test compound at 4 uM incubated for 72 hrs by MTT assay; assay type: functional, Homo sapiens
[11] = target: T1, ATP-dependent translocase ABCB1 (Homo sapiens, UniProt P08183); assay: Inhibition of ABCB1 in human SW620/AD300 cells assessed as increase in [3H]-PTX accumulation at 2 to 4 uM incubated for 4 hrs by liquid scintillation analysis; assay type: cell-based; details: sw620/ad300, 4 h, dose 2-4 µM
T1 sequence (P08183 whole entry): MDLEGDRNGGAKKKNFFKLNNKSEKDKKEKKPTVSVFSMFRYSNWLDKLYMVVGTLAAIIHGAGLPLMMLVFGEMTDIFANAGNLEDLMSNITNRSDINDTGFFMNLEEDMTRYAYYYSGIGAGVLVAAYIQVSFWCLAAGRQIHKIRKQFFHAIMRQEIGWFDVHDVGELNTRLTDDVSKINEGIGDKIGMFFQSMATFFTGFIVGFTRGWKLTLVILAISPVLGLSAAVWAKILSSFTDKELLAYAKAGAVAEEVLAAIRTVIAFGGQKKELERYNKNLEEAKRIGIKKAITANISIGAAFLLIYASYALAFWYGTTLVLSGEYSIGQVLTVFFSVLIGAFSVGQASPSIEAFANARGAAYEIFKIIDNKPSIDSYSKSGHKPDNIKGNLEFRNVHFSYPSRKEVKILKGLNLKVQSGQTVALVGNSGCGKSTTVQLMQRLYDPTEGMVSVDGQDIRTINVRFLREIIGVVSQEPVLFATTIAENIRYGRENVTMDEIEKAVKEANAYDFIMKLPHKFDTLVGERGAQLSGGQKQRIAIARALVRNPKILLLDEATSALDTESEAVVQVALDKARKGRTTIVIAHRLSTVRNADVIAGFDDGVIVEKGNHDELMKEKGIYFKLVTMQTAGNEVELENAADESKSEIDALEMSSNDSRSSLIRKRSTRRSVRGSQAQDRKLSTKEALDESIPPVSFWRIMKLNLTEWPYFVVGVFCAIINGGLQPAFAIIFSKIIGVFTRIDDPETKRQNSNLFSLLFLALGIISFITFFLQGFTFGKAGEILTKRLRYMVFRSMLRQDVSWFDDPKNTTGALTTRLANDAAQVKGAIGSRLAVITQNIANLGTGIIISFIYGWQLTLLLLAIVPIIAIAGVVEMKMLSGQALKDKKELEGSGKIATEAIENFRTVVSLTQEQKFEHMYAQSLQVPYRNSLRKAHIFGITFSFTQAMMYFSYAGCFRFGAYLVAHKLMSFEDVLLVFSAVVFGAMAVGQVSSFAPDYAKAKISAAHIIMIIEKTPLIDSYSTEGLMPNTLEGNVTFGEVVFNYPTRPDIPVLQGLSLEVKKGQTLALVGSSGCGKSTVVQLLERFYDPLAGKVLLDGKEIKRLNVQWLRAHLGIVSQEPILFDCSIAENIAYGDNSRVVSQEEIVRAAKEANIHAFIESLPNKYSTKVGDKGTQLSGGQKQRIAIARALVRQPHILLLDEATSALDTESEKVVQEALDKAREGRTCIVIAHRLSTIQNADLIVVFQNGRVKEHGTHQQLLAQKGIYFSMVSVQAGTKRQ

[12] = Toxicity in BALB/c nude mouse xenografted with […] CT26/TAXOL cells assessed as effect on kidney at 100 mg/kg/day, IG in presence of paclitaxel/anti-PD-1 measured after 14 days by H and E staining based analysis; assay type: organism-based; details: in vivo, po, 336 h, time 14 day
[13] = target: T1, ATP-dependent translocase ABCB1; assay: Inhibition of ABCB1 in human SW620/AD300 cells assessed as decrease in [3H]-PTX efflux at 4 uM measured after 120 mins (Rvb <95%); assay type: cell-based; details: 2 h
[14] = test system: SW-620; assay: Reversal of paclitaxel resistance in human SW620 cells assessed as reversal fold by measuring ratio of paclitaxel IC50 to paclitaxel IC50 in presence of test compound at 4 uM incubated for 72 hrs by MTT assay; assay type: functional
[15] = test system: KB 3-1; assay: Reversal of paclitaxel resistance in human KB 3-1 cells assessed as reversal fold by measuring ratio of paclitaxel IC50 to paclitaxel IC50 in presence of test compound at 4 uM incubated for 72 hrs by MTT assay; assay type: functional
[16] = test system: CD8-positive T cell; assay: Activation of immune response in human CD8-positive T cell assessed as increase in perforin level at 4 uM by ELISA method; assay type: functional, cell-based
[17] = Toxicity in Sprague-Dawley rat assessed as maximum tolerated dose measured for 14 days administered as single oral dose; details: in vivo, time 14 day
[18] = test system: SW620/AD300; assay: Antitumor activity against human SW620/AD300 cells xenografted in male BALB/c nude mouse model assessed as reduction in tumor volume at 100 mg/kg/day, IG measured after 21 days in presence of paclitaxel; assay type: functional, organism-based; details: time 21.0 day
[19] = Cmax in 12 hrs fasted Sprague-Dawley rat at 10 mg/kg, po measured upto 720 mins by HPLC-MS/MS analysis; assay type: ADME, organism-based; details: in vivo
[20] = test system: SW620/AD300; assay: Antitumor activity against human SW620/AD300 cells xenografted in male BALB/c nude mouse model assessed as increase in apoptosis at 100 mg/kg/day, IG in presence of paclitaxel by tunel staining based immunofluorescence analysis; assay type: functional, organism-based
[21] = test system: HEK293; assay: Cytotoxicity against HEK293 cells transfected with pcDNA3.1 assessed as survival rate at 5 uM measured after 72 hrs by MTT assay relative to control; assay type: functional; details: Homo sapiens, read-out: Survival
[22] = Toxicity in BALB/c nude mouse xenografted with […] CT26/TAXOL cells assessed as change in body weight at 100 mg/kg/day, IG measured upto 14 days in presence of paclitaxel; assay type: organism-based; details: in vivo, po, 336 h, time < 14 day
[23] = Toxicity in BALB/c nude mouse xenografted with […] CT26/TAXOL cells assessed as effect on liver at 100 mg/kg/day, IG in presence of paclitaxel measured after 14 days by H and E staining based analysis; assay type: organism-based; details: in vivo, po, 336 h, time 14 day
[24] = test system: SW620/AD300; assay: Reversal of paclitaxel resistance in human SW620/AD300 cells assessed as reversal fold by measuring ratio of paclitaxel IC50 to paclitaxel IC50 in presence of test compound incubated for 72 hrs by MTT assay; assay type: functional
[25] = test system: SW620/AD300; assay: Reversal of paclitaxel resistance in human SW620/AD300 cells assessed as reversal fold by measuring ratio of paclitaxel IC50 to paclitaxel IC50 in presence of test compound at 2 uM incubated for 72 hrs by MTT assay; assay type: functional
[26] = target: Voltage-gated inwardly rectifying potassium channel KCNH2 (Homo sapiens, UniProt Q12809); assay: Inhibition of human ERG expressed in CHO cells by QPatch assay; assay type: toxicity, cell-based
Sequence of Voltage-gated inwardly rectifying potassium channel KCNH2 (Q12809 whole entry): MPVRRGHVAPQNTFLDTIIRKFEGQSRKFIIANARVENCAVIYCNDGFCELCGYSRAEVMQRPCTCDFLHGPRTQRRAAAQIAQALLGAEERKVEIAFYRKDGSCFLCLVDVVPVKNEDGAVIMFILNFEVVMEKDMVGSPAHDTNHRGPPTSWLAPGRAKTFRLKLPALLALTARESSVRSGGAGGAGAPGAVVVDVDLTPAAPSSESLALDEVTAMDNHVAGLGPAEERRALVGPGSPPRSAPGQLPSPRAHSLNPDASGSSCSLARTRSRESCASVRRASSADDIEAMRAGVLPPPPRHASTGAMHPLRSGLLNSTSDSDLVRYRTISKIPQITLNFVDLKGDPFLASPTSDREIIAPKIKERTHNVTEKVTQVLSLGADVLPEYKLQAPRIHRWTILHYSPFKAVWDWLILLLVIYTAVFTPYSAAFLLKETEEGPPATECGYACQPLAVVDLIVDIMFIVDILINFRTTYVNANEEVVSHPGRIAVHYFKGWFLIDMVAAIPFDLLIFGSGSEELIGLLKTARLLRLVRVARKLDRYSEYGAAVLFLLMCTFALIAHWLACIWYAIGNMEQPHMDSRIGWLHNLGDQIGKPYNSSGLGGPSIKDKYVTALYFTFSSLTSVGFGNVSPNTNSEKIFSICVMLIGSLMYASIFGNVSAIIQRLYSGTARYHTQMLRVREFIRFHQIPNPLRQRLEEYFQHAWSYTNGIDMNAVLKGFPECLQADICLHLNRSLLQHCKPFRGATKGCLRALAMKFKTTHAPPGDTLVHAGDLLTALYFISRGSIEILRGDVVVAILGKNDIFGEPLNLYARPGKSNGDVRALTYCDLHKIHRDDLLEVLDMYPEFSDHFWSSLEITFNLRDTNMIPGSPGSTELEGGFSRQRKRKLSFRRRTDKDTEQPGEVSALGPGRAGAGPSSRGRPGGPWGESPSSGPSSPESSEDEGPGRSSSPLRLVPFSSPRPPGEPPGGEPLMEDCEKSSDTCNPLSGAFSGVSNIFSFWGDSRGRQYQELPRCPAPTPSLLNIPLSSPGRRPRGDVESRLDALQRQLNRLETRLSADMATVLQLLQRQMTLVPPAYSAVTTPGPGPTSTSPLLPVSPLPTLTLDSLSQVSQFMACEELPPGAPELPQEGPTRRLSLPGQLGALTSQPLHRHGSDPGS

[27] = Oral bioavailability in 12 hrs fasted Sprague-Dawley rat at 10 mg/kg measured upto 720 mins by HPLC-MS/MS analysis; assay type: ADME, organism-based; details: in vivo
[28] = Toxicity in BALB/c nude mouse xenografted with […] CT26/TAXOL cells assessed as effect on liver at 100 mg/kg/day, IG measured after 14 days by H and E staining based analysis; assay type: organism-based; details: in vivo, po, 336 h, time 14 day
[29] = Toxicity in BALB/c nude mouse xenografted with […] CT26/TAXOL cells assessed as effect on lung at 100 mg/kg/day, IG measured after 14 days by H and E staining based analysis; assay type: organism-based; details: in vivo, po, 336 h, time 14 day
[30] = test system: SW620/AD300; assay: Cytotoxicity against multidrug resistant human SW620/AD300 cells assessed as survival rate at 4 uM measured after 72 hrs by MTT assay relative to control; assay type: functional; details: read-out: Survival
[31] = Toxicity in BALB/c nude mouse xenografted with […] CT26/TAXOL cells assessed as effect on lung at 100 mg/kg/day, IG in presence of paclitaxel measured after 14 days by H and E staining based analysis; assay type: organism-based; details: in vivo, po, 336 h, time 14 day
[32] = test system: CT26/TAXOL; assay: Antitumor T-cell immune response in […] cells xenografted in BALB/c nude mouse model assessed as reduction in tumor weight at 100 mg/kg/day, IG in presence of anti-PD-1/paclitaxel measured after 14 days; assay type: functional, organism-based; details: time 14.0 day

Structure (SMILES): O=c1c2c([nH]c3nc(SCc4nc5ccccc5s4)nn13)CCC2
- AUC(0-inf) [1]: 915 ng·h/mL
- viability at 2 µM [2]: 98.5%
- Activity [3]: Non-toxic
- Tmax [4]: 6 h
- viability at 4 µM [5]: 92.4%
- viability at 5 µM [6]: 95.9%
- Activity [7]: Non-toxic
- Activity [8]: Non-toxic
- Ratio IC50 [9]: 443.74
- Ratio IC50 [10]: 1.16
- inhibition (INH) [11]: Active
- Activity [12]: Non-toxic
- inhibition at 4 µM [13]: 71%
- Ratio IC50 [14]: 1.06
- Ratio IC50 [15]: 1.39
- Activity [16]: Active
- MTD at 336 h [17]: 1000 mg/kg
- Activity [18]: Active
- Cmax [19]: 504 ng/mL
- Activity [20]: Active
- viability at 5 µM [21]: 94.3%
- Activity [22]: Non-toxic
- Activity [23]: Non-toxic
- Ratio IC50 [24]: 864
- Ratio IC50 [25]: 168.91
- IC50 [26]: > 50 µM
- bioavailability [27]: 63.9%
- Activity [28]: Non-toxic
- Activity [29]: Non-toxic
- viability at 4 µM [30]: 95.6%
- Activity [31]: Non-toxic
- Activity [32]: Active
